What was measured:
[1] = biological target: Serine/threonine-protein kinase 32A (Homo sapiens) (UniProt Q8WU08); conditions: Compound concentration 1000.0 nM
[2] = biological target: Hormonally up-regulated neu tumor-associated kinase (Homo sapiens) (UniProt P57058); conditions: Compound concentration 1000.0 nM
[3] = biological target: T1, Serine/threonine-protein kinase D3 (Homo sapiens) (UniProt O94806); conditions: Compound concentration 1000.0 nM
T1 sequence (whole entry): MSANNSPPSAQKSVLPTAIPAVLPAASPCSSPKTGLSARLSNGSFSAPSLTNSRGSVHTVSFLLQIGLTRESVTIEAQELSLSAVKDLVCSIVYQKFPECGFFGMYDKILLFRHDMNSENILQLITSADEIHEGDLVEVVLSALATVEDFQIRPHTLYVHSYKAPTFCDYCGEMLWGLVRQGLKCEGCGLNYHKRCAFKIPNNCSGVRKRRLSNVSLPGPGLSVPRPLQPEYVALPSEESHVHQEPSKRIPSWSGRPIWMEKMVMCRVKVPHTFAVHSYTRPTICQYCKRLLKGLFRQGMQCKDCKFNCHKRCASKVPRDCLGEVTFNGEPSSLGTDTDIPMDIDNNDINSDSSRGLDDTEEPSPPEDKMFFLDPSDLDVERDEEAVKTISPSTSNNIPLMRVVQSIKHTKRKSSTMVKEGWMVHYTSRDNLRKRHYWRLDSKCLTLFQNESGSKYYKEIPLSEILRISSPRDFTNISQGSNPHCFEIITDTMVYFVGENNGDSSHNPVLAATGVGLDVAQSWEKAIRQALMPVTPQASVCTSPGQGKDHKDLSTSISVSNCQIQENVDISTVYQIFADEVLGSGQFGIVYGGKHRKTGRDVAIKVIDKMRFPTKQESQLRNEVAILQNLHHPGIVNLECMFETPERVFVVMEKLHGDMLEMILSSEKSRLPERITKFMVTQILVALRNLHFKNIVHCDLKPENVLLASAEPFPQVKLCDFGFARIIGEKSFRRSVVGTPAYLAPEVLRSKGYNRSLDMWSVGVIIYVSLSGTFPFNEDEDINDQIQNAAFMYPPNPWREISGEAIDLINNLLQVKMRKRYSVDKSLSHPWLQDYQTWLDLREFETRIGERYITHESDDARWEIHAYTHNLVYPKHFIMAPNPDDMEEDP

[4] = biological target: Activin receptor type-2A (Homo sapiens) (UniProt P27037); conditions: Compound concentration 1000.0 nM
[5] = biological target: Ribosomal protein S6 kinase alpha-6 (Homo sapiens) (UniProt Q9UK32); conditions: Compound concentration 1000.0 nM
[6] = tested on: Tyrosine-protein kinase ABL1 (Homo sapiens), P00519 [Q252H]; conditions: Compound concentration 1000.0 nM
[7] = biological target: Serine/threonine-protein kinase 16 (Homo sapiens) (UniProt O75716); conditions: Compound concentration 1000.0 nM
[8] = biological target: Serine/threonine-protein kinase Nek11 (Homo sapiens) (UniProt Q8NG66); conditions: Compound concentration 1000.0 nM
[9] = biological target: Ephrin type-A receptor 7 (Homo sapiens) (UniProt Q15375); conditions: Compound concentration 1000.0 nM
[10] = biological target: Cyclin-dependent kinase 13 (Homo sapiens) (UniProt Q14004); conditions: Compound concentration 1000.0 nM
[11] = biological target: Phosphatidylinositol 4,5-bisphosphate 3-kinase catalytic subunit alpha isoform (Homo sapiens) (UniProt P42336); conditions: Compound concentration 1000.0 nM
Chain of Phosphatidylinositol 4,5-bisphosphate 3-kinase catalytic subunit alpha isoform (Homo sapiens) (P42336 whole entry, canonical isoform): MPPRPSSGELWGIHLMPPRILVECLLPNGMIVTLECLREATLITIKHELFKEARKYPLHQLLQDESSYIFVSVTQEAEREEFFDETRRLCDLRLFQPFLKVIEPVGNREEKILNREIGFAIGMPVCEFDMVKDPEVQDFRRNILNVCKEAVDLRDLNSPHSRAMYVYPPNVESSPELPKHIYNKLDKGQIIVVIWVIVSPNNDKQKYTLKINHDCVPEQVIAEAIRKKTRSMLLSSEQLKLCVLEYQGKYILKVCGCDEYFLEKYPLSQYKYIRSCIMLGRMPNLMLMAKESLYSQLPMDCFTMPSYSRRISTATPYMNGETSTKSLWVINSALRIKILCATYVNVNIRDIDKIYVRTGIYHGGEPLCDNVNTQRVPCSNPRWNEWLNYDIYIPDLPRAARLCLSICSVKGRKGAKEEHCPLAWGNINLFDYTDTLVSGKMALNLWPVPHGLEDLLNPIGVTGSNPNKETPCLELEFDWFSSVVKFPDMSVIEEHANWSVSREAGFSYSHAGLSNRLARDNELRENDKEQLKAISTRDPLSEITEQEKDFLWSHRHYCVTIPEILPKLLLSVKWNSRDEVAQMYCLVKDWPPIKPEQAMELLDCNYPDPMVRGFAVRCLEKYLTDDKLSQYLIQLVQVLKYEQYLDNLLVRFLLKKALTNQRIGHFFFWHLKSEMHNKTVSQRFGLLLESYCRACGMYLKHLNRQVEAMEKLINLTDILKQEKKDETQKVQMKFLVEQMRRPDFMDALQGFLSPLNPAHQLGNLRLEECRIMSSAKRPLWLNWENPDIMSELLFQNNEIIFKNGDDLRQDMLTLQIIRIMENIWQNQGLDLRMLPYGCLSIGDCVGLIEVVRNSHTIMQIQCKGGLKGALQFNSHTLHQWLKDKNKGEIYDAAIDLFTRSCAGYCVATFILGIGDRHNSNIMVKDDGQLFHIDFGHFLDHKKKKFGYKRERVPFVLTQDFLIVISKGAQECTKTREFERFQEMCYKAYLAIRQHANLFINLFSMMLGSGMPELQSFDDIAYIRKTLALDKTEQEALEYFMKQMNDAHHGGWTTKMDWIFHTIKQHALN

[12] = tested on: Tyrosine-protein kinase ABL1 (Homo sapiens), P00519 [H396P]; conditions: Compound concentration 1000.0 nM
[13] = tested on: Proto-oncogene tyrosine-protein kinase receptor Ret (Homo sapiens), P07949 [M918T]; conditions: Compound concentration 1000.0 nM
Chain of Proto-oncogene tyrosine-protein kinase receptor Ret (Homo sapiens), P07949 [M918T] (P07949 whole entry M918T): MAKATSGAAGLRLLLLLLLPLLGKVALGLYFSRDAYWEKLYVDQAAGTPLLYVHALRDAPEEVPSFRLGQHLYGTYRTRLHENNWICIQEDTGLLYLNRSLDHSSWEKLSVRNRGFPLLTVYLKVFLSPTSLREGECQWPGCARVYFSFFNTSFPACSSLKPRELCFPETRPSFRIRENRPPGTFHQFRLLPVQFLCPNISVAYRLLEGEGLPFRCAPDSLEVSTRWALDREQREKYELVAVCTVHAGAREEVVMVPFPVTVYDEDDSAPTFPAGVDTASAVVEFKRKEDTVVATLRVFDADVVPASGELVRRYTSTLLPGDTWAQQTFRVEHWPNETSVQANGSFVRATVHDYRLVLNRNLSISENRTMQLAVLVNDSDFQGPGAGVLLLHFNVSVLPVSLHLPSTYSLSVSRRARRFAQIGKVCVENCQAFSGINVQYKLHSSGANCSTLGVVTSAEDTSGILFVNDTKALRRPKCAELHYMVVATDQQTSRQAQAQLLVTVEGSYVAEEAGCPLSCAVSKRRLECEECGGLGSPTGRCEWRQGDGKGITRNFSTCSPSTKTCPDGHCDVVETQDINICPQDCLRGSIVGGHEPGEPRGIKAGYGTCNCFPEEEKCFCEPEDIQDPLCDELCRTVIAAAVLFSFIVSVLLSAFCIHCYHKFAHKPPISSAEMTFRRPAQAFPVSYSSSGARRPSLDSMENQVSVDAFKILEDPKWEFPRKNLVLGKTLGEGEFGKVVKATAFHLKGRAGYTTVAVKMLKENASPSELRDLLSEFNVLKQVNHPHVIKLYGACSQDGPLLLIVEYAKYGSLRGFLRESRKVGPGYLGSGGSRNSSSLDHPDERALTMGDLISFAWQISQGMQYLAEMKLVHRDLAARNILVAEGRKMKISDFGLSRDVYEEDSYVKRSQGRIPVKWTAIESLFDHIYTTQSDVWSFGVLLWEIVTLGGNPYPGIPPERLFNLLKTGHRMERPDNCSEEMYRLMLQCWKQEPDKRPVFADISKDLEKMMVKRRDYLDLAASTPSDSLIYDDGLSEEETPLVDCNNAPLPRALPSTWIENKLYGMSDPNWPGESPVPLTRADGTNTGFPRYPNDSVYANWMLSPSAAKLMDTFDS

[14] = biological target: T2, Serine/threonine-protein kinase TAO3 (Homo sapiens) (UniProt Q9H2K8); conditions: Compound concentration 1000.0 nM
T2 sequence (whole entry): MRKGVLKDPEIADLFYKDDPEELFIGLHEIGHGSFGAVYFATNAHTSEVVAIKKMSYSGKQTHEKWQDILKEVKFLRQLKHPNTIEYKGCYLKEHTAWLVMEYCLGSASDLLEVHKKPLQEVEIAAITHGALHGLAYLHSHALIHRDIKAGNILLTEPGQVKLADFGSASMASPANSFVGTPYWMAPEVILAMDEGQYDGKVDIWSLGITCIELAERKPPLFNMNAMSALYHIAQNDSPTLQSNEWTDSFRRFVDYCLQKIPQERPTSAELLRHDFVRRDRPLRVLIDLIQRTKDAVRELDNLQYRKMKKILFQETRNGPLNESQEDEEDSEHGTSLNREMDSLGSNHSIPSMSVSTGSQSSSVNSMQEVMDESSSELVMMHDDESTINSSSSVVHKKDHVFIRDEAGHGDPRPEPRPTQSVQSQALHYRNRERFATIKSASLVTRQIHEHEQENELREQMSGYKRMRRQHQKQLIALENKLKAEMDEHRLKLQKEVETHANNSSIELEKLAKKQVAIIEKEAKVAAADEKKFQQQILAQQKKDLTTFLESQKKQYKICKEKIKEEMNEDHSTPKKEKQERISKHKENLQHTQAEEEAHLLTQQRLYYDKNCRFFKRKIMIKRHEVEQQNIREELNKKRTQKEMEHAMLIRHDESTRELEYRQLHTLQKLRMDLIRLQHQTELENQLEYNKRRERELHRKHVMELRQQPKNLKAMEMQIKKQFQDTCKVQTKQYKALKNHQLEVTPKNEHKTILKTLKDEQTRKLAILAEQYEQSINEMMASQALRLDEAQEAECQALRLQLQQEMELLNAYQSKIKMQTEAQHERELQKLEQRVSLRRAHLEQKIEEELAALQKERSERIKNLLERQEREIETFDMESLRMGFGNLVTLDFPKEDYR

[15] = biological target: Testis-specific serine/threonine-protein kinase 1 (Homo sapiens) (UniProt Q9BXA7); conditions: Compound concentration 1000.0 nM
Chain of Testis-specific serine/threonine-protein kinase 1 (Homo sapiens) (Q9BXA7 whole entry): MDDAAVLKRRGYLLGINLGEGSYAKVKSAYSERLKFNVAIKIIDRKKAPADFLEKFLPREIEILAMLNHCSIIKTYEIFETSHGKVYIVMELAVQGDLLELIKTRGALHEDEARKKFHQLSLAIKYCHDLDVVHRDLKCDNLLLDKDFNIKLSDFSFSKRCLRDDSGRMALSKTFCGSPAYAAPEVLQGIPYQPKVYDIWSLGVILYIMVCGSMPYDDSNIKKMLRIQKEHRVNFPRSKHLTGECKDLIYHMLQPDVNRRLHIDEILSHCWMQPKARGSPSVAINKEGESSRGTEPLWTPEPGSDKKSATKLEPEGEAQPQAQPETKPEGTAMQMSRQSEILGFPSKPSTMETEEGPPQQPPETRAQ

[16] = biological target: Phosphatidylinositol 4-phosphate 5-kinase type-1 alpha (Homo sapiens) (UniProt Q99755); conditions: Compound concentration 1000.0 nM
[17] = biological target: Calcium/calmodulin-dependent protein kinase type 1B (Homo sapiens) (UniProt Q6P2M8); conditions: Compound concentration 1000.0 nM
[18] = biological target: Ribosomal protein S6 kinase alpha-4 (Homo sapiens) (UniProt O75676); conditions: Compound concentration 1000.0 nM
Chain of Ribosomal protein S6 kinase alpha-4 (Homo sapiens) (O75676 whole entry, looked up): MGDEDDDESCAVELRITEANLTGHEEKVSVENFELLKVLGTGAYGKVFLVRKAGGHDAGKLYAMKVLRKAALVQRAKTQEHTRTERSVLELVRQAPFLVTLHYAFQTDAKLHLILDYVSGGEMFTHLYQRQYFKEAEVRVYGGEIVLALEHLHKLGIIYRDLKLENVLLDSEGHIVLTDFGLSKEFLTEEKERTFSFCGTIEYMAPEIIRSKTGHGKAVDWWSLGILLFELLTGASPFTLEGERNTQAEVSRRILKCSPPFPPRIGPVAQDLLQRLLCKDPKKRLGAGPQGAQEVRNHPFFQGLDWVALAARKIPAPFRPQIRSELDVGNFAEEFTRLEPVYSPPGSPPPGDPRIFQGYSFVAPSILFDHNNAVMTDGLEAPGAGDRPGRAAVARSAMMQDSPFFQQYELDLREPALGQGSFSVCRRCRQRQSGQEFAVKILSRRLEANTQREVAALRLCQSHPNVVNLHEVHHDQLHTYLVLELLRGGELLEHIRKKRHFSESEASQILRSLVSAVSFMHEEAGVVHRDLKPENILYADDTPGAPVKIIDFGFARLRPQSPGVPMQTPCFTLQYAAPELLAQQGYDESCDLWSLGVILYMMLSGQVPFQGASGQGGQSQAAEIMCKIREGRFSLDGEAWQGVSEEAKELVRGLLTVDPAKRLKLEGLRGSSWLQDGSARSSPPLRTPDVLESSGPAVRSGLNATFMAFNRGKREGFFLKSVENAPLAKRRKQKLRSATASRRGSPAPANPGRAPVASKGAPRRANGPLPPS

[19] = biological target: Cyclin-dependent kinase 14 (Homo sapiens) (UniProt O94921); conditions: Compound concentration 1000.0 nM
Chain of Cyclin-dependent kinase 14 (Homo sapiens) (O94921 whole entry): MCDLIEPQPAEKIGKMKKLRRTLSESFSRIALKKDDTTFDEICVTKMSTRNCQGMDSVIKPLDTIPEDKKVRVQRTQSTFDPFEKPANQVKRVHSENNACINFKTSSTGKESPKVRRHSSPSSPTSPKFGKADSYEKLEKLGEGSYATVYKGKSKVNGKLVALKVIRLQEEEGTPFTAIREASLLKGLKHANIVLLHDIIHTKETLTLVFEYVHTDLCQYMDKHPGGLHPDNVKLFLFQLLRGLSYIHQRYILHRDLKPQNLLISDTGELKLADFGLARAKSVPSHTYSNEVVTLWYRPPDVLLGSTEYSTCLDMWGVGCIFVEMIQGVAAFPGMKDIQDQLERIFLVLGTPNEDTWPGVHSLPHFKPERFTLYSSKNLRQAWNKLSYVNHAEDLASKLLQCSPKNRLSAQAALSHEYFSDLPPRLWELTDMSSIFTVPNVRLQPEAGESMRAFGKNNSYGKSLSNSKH

[20] = biological target: Serine/threonine-protein kinase 38 (Homo sapiens) (UniProt Q15208); conditions: Compound concentration 1000.0 nM
[21] = biological target: Histamine H3 receptor (Homo sapiens) (UniProt Q9Y5N1); conditions: Compound concentration 10.0 uM
Chain of Histamine H3 receptor (Homo sapiens) (Q9Y5N1 whole entry): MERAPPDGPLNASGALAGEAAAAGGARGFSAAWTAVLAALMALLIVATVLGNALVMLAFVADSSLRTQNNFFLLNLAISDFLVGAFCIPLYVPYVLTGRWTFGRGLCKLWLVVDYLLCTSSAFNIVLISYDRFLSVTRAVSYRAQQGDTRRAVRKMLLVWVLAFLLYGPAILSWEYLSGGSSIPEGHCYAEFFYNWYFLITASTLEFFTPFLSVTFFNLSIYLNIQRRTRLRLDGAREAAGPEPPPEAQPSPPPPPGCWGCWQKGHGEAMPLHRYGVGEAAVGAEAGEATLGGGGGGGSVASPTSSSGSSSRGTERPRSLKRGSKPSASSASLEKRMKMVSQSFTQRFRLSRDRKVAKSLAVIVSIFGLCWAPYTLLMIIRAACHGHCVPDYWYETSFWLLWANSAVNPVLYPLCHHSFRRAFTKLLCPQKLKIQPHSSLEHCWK

Chain of Hormonally up-regulated neu tumor-associated kinase (Homo sapiens) (P57058 whole entry): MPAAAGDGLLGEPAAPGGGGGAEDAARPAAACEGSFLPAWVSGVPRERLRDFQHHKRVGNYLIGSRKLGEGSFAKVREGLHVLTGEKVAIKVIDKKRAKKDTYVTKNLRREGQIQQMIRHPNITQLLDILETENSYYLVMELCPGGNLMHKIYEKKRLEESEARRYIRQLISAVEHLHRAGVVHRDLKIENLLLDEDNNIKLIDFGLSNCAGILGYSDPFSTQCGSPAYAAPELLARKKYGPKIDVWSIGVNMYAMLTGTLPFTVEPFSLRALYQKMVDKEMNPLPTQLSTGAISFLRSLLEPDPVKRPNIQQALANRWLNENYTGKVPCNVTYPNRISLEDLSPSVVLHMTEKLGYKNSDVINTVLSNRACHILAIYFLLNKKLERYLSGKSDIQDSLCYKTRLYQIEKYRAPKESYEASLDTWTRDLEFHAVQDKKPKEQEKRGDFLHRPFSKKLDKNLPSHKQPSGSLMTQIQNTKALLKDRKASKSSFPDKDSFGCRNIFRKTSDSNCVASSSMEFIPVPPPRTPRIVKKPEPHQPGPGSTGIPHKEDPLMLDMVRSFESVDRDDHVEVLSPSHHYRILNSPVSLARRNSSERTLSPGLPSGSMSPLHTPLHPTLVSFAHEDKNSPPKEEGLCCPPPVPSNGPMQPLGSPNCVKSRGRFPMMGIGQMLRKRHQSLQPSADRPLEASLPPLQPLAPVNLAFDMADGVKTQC

CN(C)C(=O)Cn1cc(-c2nc(C3(c4ccc(-c5cnc(N)nc5)cc4)CC3)no2)cn1 [BI 0153]
inactive: residual activity [1] 97% | residual activity [2] 96% | residual activity [3] 92% | residual activity [4] 84% | residual activity [5] 100% | residual activity [6] 100% | residual activity [7] 100% | residual activity [8] 90% | residual activity [9] 92% | residual activity [10] 91% | residual activity [11] 76% | residual activity [12] 100% | residual activity [13] 99% | residual activity [14] 67% | residual activity [15] 100% | residual activity [16] 95% | residual activity [17] 77% | residual activity [18] 86% | residual activity [19] 100% | residual activity [20] 84% | inhibition [21] 3.45%

CN(C)C(=O)Cn1cc(-c2nc([C@@](C)(c3ccc(-c4cnc(N)nc4)cc3)C3CC3)no2)cn1 [BI 665915]
inactive: residual activity [1] 83% | residual activity [2] 100% | residual activity [3] 100% | residual activity [4] 81% | residual activity [5] 100% | residual activity [6] 83% | residual activity [7] 100% | residual activity [8] 100% | residual activity [9] 98% | residual activity [10] 83% | residual activity [11] 96% | residual activity [12] 80% | residual activity [13] 83% | residual activity [14] 89% | residual activity [15] 100% | residual activity [16] 90% | residual activity [17] 88% | residual activity [18] 72% | residual activity [19] 99% | residual activity [20] 80% | inhibition [21] 11%

From ChEMBL document CHEMBL4507276 (2021)
